# Experimental data taken from PubChem BioAssay (NCI).
#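 Interpolation was linear, between the two tested concentrations surrounding the appropriate level; five concentrations were tested over 48 hours in 96-well plates. GI50 marks 50% less growth. TGI denotes the concentration required for complete inhibition of growth.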
# How the values were obtained:
# Experiment in all cases: growth of human tumour cells (NCI), 48 h
# MALME-3M melanoma = test system: MALME-3M melanoma
# KM12 colon = test system: KM12 colon
# HCT-116 colon = test system: HCT-116 colon
# TK-10 renal = test system: TK-10 renal
# SF-295 CNS = test system: SF-295 CNS
# A549 NSCLC = test system: A549 NSCLC
# UO-31 renal = test system: UO-31 renal
# NCI-H522 lung = test system: NCI-H522 lung
# MOLT-4 leukemia = test system: MOLT-4 leukemia
# NCI-H460 lung = test system: NCI-H460 lung
# NCI-H23 lung = test system: NCI-H23 lung
# OVCAR-5 ovarian = test system: OVCAR-5 ovarian
# SNB-19 CNS = test system: SNB-19 CNS
# MDA-MB-435 = test system: MDA-MB-435
# HOP-92 NSCLC = test system: HOP-92 NSCLC
# HL-60(TB) leukemia = test system: HL-60(TB) leukemia
# A498 renal = test system: A498 renal
# SR leukemia = test system: SR leukemia
# HCT-15 colon = test system: HCT-15 colon
# CAKI-1 renal = test system: CAKI-1 renal
# SF-539 CNS = test system: SF-539 CNS
# K-562 leukemia = test system: K-562 leukemia
# SK-MEL-2 melanoma = test system: SK-MEL-2 melanoma
# PC-3 prostate = test system: PC-3 prostate
# MDA-MB-231 breast = test system: MDA-MB-231 breast
# 786-0 renal = test system: 786-0 renal
# RXF 393 renal = test system: RXF 393 renal
# EKVX NSCLC = test system: EKVX NSCLC
# NCI-H226 lung = test system: NCI-H226 lung
# IGROV1 ovarian = test system: IGROV1 ovarian
# OVCAR-4 ovarian = test system: OVCAR-4 ovarian
# DU-145 prostate = test system: DU-145 prostate
# T-47D breast = test system: T-47D breast
# ACHN renal = test system: ACHN renal
# SN12C renal = test system: SN12C renal
# RPMI-8226 leukemia = test system: RPMI-8226 leukemia
# OVCAR-8 ovarian = test system: OVCAR-8 ovarian
# SNB-75 CNS = test system: SNB-75 CNS
# UACC-257 melanoma = test system: UACC-257 melanoma
# MCF7 breast = test system: MCF7 breast
# OVCAR-3 ovarian = test system: OVCAR-3 ovarian
# NCI/ADR-RES ovarian = test system: NCI/ADR-RES ovarian
# BT-549 breast = test system: BT-549 breast
# SK-OV-3 ovarian = test system: SK-OV-3 ovarian
# SK-MEL-28 melanoma = test system: SK-MEL-28 melanoma
# SW-620 colon = test system: SW-620 colon
# UACC-62 melanoma = test system: UACC-62 melanoma
# HT29 colon = test system: HT29 colon
# LOX IMVI melanoma = test system: LOX IMVI melanoma
# HS 578T breast = test system: HS 578T breast
# CCRF-CEM leukemia = test system: CCRF-CEM leukemia
# COLO 205 colon = test system: COLO 205 colon
# SF-268 CNS = test system: SF-268 CNS
# U251 CNS = test system: U251 CNS
# HOP-62 NSCLC = test system: HOP-62 NSCLC
# SK-MEL-5 melanoma = test system: SK-MEL-5 melanoma
# HCC-2998 colon = test system: HCC-2998 colon
# M14 melanoma = test system: M14 melanoma
smiles,measurement,setting,value
CCN1C(=O)N(CC)C2C1NN=c1s/c(=C3\C(=O)Nc4ccccc43)c(=O)n12 (stereo unspecified),GI50,MALME-3M melanoma,557 nM
same,TGI,MALME-3M melanoma,38400 nM
same,GI50,KM12 colon,452 nM
same,TGI,KM12 colon,> 100000 nM
same,GI50,HCT-116 colon,485 nM
same,TGI,HCT-116 colon,> 61600 nM
same,GI50,TK-10 renal,9370 nM
same,TGI,TK-10 renal,32600 nM
same,GI50,SF-295 CNS,463 nM
same,TGI,SF-295 CNS,12400 nM
same,GI50,A549 NSCLC,812 nM
same,TGI,A549 NSCLC,> 100000 nM
same,GI50,UO-31 renal,1090 nM
same,TGI,UO-31 renal,> 100000 nM
same,GI50,NCI-H522 lung,373 nM
same,TGI,NCI-H522 lung,> 43600 nM
same,GI50,MOLT-4 leukemia,549 nM
same,TGI,MOLT-4 leukemia,> 100000 nM
same,GI50,NCI-H460 lung,397 nM
same,TGI,NCI-H460 lung,> 100000 nM
same,GI50,NCI-H23 lung,752 nM
same,TGI,NCI-H23 lung,24000 nM
same,GI50,OVCAR-5 ovarian,2310 nM
same,TGI,OVCAR-5 ovarian,> 100000 nM
same,GI50,SNB-19 CNS,633 nM
same,TGI,SNB-19 CNS,32300 nM
same,GI50,MDA-MB-435,147 nM
same,TGI,MDA-MB-435,357 nM
same,GI50,HOP-92 NSCLC,598 nM
same,TGI,HOP-92 NSCLC,32500 nM
same,GI50,HL-60(TB) leukemia,296 nM
same,TGI,HL-60(TB) leukemia,910 nM
same,GI50,A498 renal,193 nM
same,TGI,A498 renal,728 nM
same,GI50,SR leukemia,292 nM
same,TGI,SR leukemia,> 62000 nM
same,GI50,HCT-15 colon,410 nM
same,TGI,HCT-15 colon,> 100000 nM
same,GI50,CAKI-1 renal,404 nM
same,TGI,CAKI-1 renal,34800 nM
same,GI50,SF-539 CNS,309 nM
same,TGI,SF-539 CNS,1700 nM
same,GI50,K-562 leukemia,343 nM
same,TGI,K-562 leukemia,> 100000 nM
same,GI50,SK-MEL-2 melanoma,1340 nM
same,TGI,SK-MEL-2 melanoma,30000 nM
same,GI50,PC-3 prostate,393 nM
same,TGI,PC-3 prostate,> 100000 nM
same,GI50,MDA-MB-231 breast,2410 nM
same,TGI,MDA-MB-231 breast,49900 nM
same,GI50,786-0 renal,588 nM
same,TGI,786-0 renal,24600 nM
same,GI50,RXF 393 renal,279 nM
same,TGI,RXF 393 renal,1050 nM
same,GI50,EKVX NSCLC,2120 nM
same,TGI,EKVX NSCLC,> 100000 nM
same,GI50,NCI-H226 lung,544 nM
same,TGI,NCI-H226 lung,55500 nM
same,GI50,IGROV1 ovarian,616 nM
same,TGI,IGROV1 ovarian,24600 nM
same,GI50,OVCAR-4 ovarian,> 59100 nM
same,TGI,OVCAR-4 ovarian,> 100000 nM
same,GI50,DU-145 prostate,492 nM
same,TGI,DU-145 prostate,33600 nM
same,GI50,T-47D breast,420 nM
same,TGI,T-47D breast,> 100000 nM
same,GI50,ACHN renal,606 nM
same,TGI,ACHN renal,> 47600 nM
same,GI50,SN12C renal,600 nM
same,TGI,SN12C renal,> 100000 nM
same,GI50,RPMI-8226 leukemia,306 nM
same,TGI,RPMI-8226 leukemia,6060 nM
same,GI50,OVCAR-8 ovarian,639 nM
same,TGI,OVCAR-8 ovarian,> 53700 nM
same,GI50,SNB-75 CNS,< 44.7 nM
same,TGI,SNB-75 CNS,429 nM
same,GI50,UACC-257 melanoma,25200 nM
same,TGI,UACC-257 melanoma,> 100000 nM
same,GI50,MCF7 breast,354 nM
same,TGI,MCF7 breast,> 89700 nM
same,GI50,OVCAR-3 ovarian,331 nM
same,TGI,OVCAR-3 ovarian,3020 nM
same,GI50,NCI/ADR-RES ovarian,5670 nM
same,TGI,NCI/ADR-RES ovarian,> 100000 nM
same,GI50,BT-549 breast,1060 nM
same,TGI,BT-549 breast,32300 nM
same,GI50,SK-OV-3 ovarian,781 nM
same,TGI,SK-OV-3 ovarian,29600 nM
same,GI50,SK-MEL-28 melanoma,891 nM
same,TGI,SK-MEL-28 melanoma,> 100000 nM
same,GI50,SW-620 colon,409 nM
same,TGI,SW-620 colon,> 100000 nM
same,GI50,UACC-62 melanoma,371 nM
same,TGI,UACC-62 melanoma,23900 nM
same,GI50,HT29 colon,374 nM
same,TGI,HT29 colon,> 100000 nM
same,GI50,LOX IMVI melanoma,625 nM
same,TGI,LOX IMVI melanoma,29200 nM
same,GI50,HS 578T breast,347 nM
same,TGI,HS 578T breast,17700 nM
same,GI50,CCRF-CEM leukemia,385 nM
same,TGI,CCRF-CEM leukemia,27100 nM
same,GI50,COLO 205 colon,445 nM
same,TGI,COLO 205 colon,> 57500 nM
same,GI50,SF-268 CNS,10600 nM
same,TGI,SF-268 CNS,45100 nM
same,GI50,U251 CNS,556 nM
same,TGI,U251 CNS,21000 nM
same,GI50,HOP-62 NSCLC,734 nM
same,TGI,HOP-62 NSCLC,25800 nM
same,GI50,SK-MEL-5 melanoma,426 nM
same,TGI,SK-MEL-5 melanoma,> 100000 nM
same,GI50,HCC-2998 colon,1470 nM
same,TGI,HCC-2998 colon,31700 nM
same,GI50,M14 melanoma,330 nM
same,TGI,M14 melanoma,3360 nM
